In patent US11465975B2, “Certain chemical entities, compositions, and methods” (NeuPharma, Inc., priority 2018, dated 2022):
Where “and” joins values, the source holds several entries; their conditions need not be identical. Equal values may be shown once.

What was measured:
Type in all cases: physicochemical
[1] = Preliminary accelerated stability test of Form I, non-micronized and micronized (HPLC, XRPD, DSC); parameters: RRT 1.09: unit not given here; conditions: for Stability tested by HPLC, XRPD and DSC (degradation and crystal conversion): 40° C./75% RH and 60° C. for 2 weeks; for Assay % / Average Total impurity (%) / Average assay (%) / Peak area % / RRT 1.09 / Total impurity (%): solid, HPLC
Method: (§1) HPLCs were preformed using the following instrument and/or conditions.
(§2) Form I (both non-micronized and micronized) was used for the preliminary accelerated stability test. The samples were exposed to different stressed condition (40° C./75% RH and 60° C.) for 2 weeks. Standard controls were placed at −20° C. Samples and corresponding standard controls were pulled out for XRPD, DSC and HPLC analysis at 0 day, 1st week and 2nd week, respectively. The samples placed under condition without humidity were closed tightly with cap. The samples placed under humidity condition were just covered with aluminum foil with pinholes. HPLC steps were performed as described in Example 14.

[2] = Competitive test of Form I and Form VI (suspension equilibration, XRPD check); conditions: for Check result at 7 days (form of residual solid, XRPD): room temperature; for Check result at 21 days (form of residual solid, XRPD): 14 days RT then 40° C.; for Check result at 14 days (form of residual solid, XRPD): 7 days RT then 40° C.
Method: X-ray powder diffraction (XRD) patterns were obtained on a Bruker D8 Advance. A CuK source (=1.54056 angstrom) operating minimally at 40 kV and 40 mA scans each sample between 4 and 40 degrees 2-theta. The step size is 0.05° C. and scan speed is 0.5 second per step.
Two polymorphic forms of the compound of Formula I, Form I and Form VI, were suspended at the ratio of 1:1 in various solvents and equilibrated at room temperature for a period of time. The forms of the residual solid were checked at 7 days. If still a mixed form, continued to equilibrate at room temperature or 40° C. The solvents were EtOAc, iPoAc, Acetone, MEK, EtOH, IPA, IPE, MTBE, Hexane and Heptane.
XRPD profiles were acquired at the beginning and end of the experiment and compared to XRPD patterns of the known forms.

[3] = Preliminary accelerated stability test of Form VI (HPLC, XRPD, DSC); conditions: for Assay % / Average assay (%) / Peak area % / Total impurity (%): solid; for Assay % / Average assay (%) / Peak area %: HPLC; for Total impurity (%): peak area normalized method
Method: as §1
as §2, with “Form VI of the compound of Formula” for “Form”, “I” for “I (both non-micronized and micronized)”

## C=CC(=O)Nc1cccc(-c2cccc3cnc(Nc4ccc(N5CCN(CCO)CC5)c(F)c4F)nc23)c1 [non-micronized Form I, N-(3-(2-((2,3-difluoro-4-(4-(2-hydroxyethyl)piperazin-1-yl)phenyl)amino)quinazolin-8-yl)phenyl)acrylamide]
[1]
  Stability tested by HPLC, XRPD and DSC (degradation and crystal conversion): No significant degradation and crystal conversion were detected
[1]; 40° C./75% RH, 7 d
  Assay %: 98.28% and 98.59%
  Average Total impurity (%): 0.88%
  Average assay (%): 98.44%
  Peak area %: 99.12%
  RRT 1.09: 0.027 and 0.032
  Total impurity (%): 0.88%
[1]; 40° C./75% RH, 14 d
  Assay %: 98.24% and 97.53%
  Average Total impurity (%): 0.86%
  Average assay (%): 97.88%
  Peak area %: 99.14%
  RRT 1.09: 0.026 and 0.027
  Total impurity (%): 0.86%
[1]; 60° C., 7 d
  Assay %: 95.99% and 98.78%
  Average Total impurity (%): 0.85%
  Average assay (%): 97.38%
  Peak area %: 99.15%
  RRT 1.09: 0.030 and 0.028
  Total impurity (%): 0.85%
[1]; 60° C., 14 d
  Assay %: 98.38% and 99.25%
  Average Total impurity (%): 0.85%
  Average assay (%): 98.81%
  Peak area %: 99.17% and 99.14%
  RRT 1.09: 0.028
  Total impurity (%): 0.83% and 0.86%
[1]; RT
  Assay %: 98.98% and 99.18%
  Average Total impurity (%): 0.84%
  Average assay (%): 99.08%
  Peak area %: 99.18% and 99.14%
  RRT 1.09: 0.027
  Total impurity (%): 0.82% and 0.86%

## C=CC(=O)Nc1cccc(-c2cccc3cnc(Nc4ccc(N5CCN(CCO)CC5)c(F)c4F)nc23)c1 [Form I and Form VI, N-(3-(2-((2,3-difluoro-4-(4-(2-hydroxyethyl)piperazin-1-yl)phenyl)amino)quinazolin-8-yl)phenyl)acrylamide]
[2]; 1:1 suspension in EtOH
  Check result at 7 days (form of residual solid, XRPD): Form III and Form VI
[2]; 1:1 suspension in IPA
  Check result at 7 days (form of residual solid, XRPD): Form VI
[2]; 1:1 suspension in MEK
  Check result at 7 days (form of residual solid, XRPD): Form I
[2]; 1:1 suspension in MTBE
  Check result at 21 days (form of residual solid, XRPD): Form I
[2]; 1:1 suspension in acetone
  Check result at 7 days (form of residual solid, XRPD): Form I
[2]; 1:1 suspension in ethyl acetate (EtOAc)
  Check result at 14 days (form of residual solid, XRPD): Form I
[2]; 1:1 suspension in heptane
  Check result at 21 days (form of residual solid, XRPD): Mixed
[2]; 1:1 suspension in hexane
  Check result at 21 days (form of residual solid, XRPD): Mixed
[2]; 1:1 suspension in isopropyl acetate (iPoAc)
  Check result at 14 days (form of residual solid, XRPD): Form I
[2]; 1:1 suspension in isopropyl ether (IPE)
  Check result at 21 days (form of residual solid, XRPD): Mixed

## C=CC(=O)Nc1cccc(-c2cccc3cnc(Nc4ccc(N5CCN(CCO)CC5)c(F)c4F)nc23)c1 [micronized Form I, N-(3-(2-((2,3-difluoro-4-(4-(2-hydroxyethyl)piperazin-1-yl)phenyl)amino)quinazolin-8-yl)phenyl)acrylamide]
[1]
  Stability tested by HPLC, XRPD and DSC (degradation and crystal conversion): No significant degradation and crystal conversion were detected
[1]; 40° C./75% RH, 7 d
  Assay %: 97.67% and 97.30%
  Average Total impurity (%): 0.86%
  Average assay (%): 97.48%
  Peak area %: 99.14%
  RRT 1.09: 0.029 and 0.024
  Total impurity (%): 0.86%
[1]; 40° C./75% RH, 14 d
  Assay %: 96.20% and 98.00%
  Average Total impurity (%): 0.88%
  Average assay (%): 97.10%
  Peak area %: 99.11% and 99.12%
  RRT 1.09: 0.028
  Total impurity (%): 0.89% and 0.88%
[1]; 60° C., 7 d
  Assay %: 98.46% and 97.35%
  Average Total impurity (%): 0.85%
  Average assay (%): 97.90%
  Peak area %: 99.15%
  RRT 1.09: 0.022 and 0.028
  Total impurity (%): 0.85%
[1]; 60° C., 14 d
  Assay %: 98.52% and 98.23%
  Average Total impurity (%): 0.87%
  Average assay (%): 98.37%
  Peak area %: 99.12% and 99.13%
  RRT 1.09: 0.027 and 0.028
  Total impurity (%): 0.88% and 0.87%
[1]; RT
  Assay %: 98.74% and 98.36%
  Average Total impurity (%): 0.84%
  Average assay (%): 98.55%
  Peak area %: 99.14% and 99.18%
  RRT 1.09: 0.029 and 0.024
  Total impurity (%): 0.86% and 0.82%

## C=CC(=O)Nc1cccc(-c2cccc3cnc(Nc4ccc(N5CCN(CCO)CC5)c(F)c4F)nc23)c1 [Form VI, N-(3-(2-((2,3-difluoro-4-(4-(2-hydroxyethyl)piperazin-1-yl)phenyl)amino)quinazolin-8-yl)phenyl)acrylamide]
[3]; 40° C./75% RH and 60° C. for 2 weeks
  Stability tested by HPLC, XRPD and DSC (degradation and crystal conversion): No significant degradation and crystal conversion were detected
[3]; 40° C./75% RH, 7 days
  Assay %: 91.50% and 91.85%
  Average assay (%): 91.67%
  Peak area %: 99.0% and 99.1%
  Total impurity (%): 0.98% and 0.95%
[3]; 40° C./75% RH, 14 days
  Assay %: 92.13% and 91.45%
  Average assay (%): 91.79%
  Peak area %: 99.0%
  Total impurity (%): 0.99% and 0.96%
[3]; 60° C., 7 days
  Assay %: 91.61% and 93.76%
  Average assay (%): 92.68%
  Peak area %: 98.9% and 99.0%
  Total impurity (%): 1.10% and 1.04%
[3]; 60° C., 14 days
  Assay %: 91.82% and 91.77%
  Average assay (%): 91.80%
  Peak area %: 99.0% and 99.1%
  Total impurity (%): 1.01% and 0.94%
[3]; −20° C. (standard control)
  Assay %: 92.15% and 92.28%
  Average assay (%): 92.21%
  Peak area %: 99.0%
  Total impurity (%): 0.95% and 0.98%
